Experimental data reported in patent US7662851B2, “Use of specific cyklolignans” (Axelar AB, priority 2001, dated 2010).
pEC50: −log10 of the molar value. Where two headings read alike, the source gives them in different places.

Tests used:
[1] = tested on: fibroblast growth factor receptor (FGFR); assay: Tyrosine phosphorylation of FGFR in intact FM55 melanoma cells; assay type: cell-based; conditions: 0.05 μM, 1 h
Procedure: (§1) Cells were cultured to subconfluency in 6-cm plates, and then fresh medium containing 10% FBS and the desired compounds were added for 1 h. The cells were then lyzed and subjected to immunoprecipitation using specific antibodies. Immunoprecipitates were resolved by sodium dodecyl sulphate polyacrylamide gel electrophoresis (SDS-PAGE) and transferred to nitro-cellulose membranes and incubated with anti-phosphotyrosine antibody. Antibodies to actin (in cell extract) or IGF-1R beta subunit were used as loading controls. After detection the films were scanned for quantification.
(§2) FM55 melanoma cells were cultured in the same way as described in Experiment 1. When reaching a density of 65,000 cells/cm^2 in the dishes, they were treated for 1 h with 0 (control) and 0.05 μM of picropodophyllin and podophyllotoxin, respectively. The cells were then isolated and subjected to immunoprecipitation of the IGF-1R, fibroblast growth factor receptor (FGFR), platelet-derived growth factor receptor (PDGFR), epidermal growth factor receptor (EGFR), insulin receptor (IR) and insulin substrate-1 (IRS-1) using antibodies to respective molecules. IRS-1 is a substrate of IGF-1R, and therefore its phosphorylation is dependent on phosphorylated IGF-1R. Gelelectrophoresis, Western blotting and quantification of the different signals were performed as described above.

[2] = tested on: SK-MEL-28 melanoma cell line; assay: Cell viability (XTT), SK-MEL-28; assay type: cell-based
Procedure: (§3) Cell proliferation kit II (Roche Inc.) is based on colorimetric change of the yellow tetrazolium salt XTT in orange formazan dye by the respiratory chain of viable cells (Roehm, N W, et al., J Immunol Methods 142:257-265, 1991). Cells seeded at a concentration of 5000/well in 100 μl medium in a 96-well plate were treated with different drugs in the given concentration. After 24 or 48 h the cells were incubated, according to the manufacturer's protocol, with XTT labelling mixture. After 4 h the formazan dye is quantified using a scanning multiwell spectrophotometer with a 495-nm filter. The absorbance is directly correlated with the number of viable cells. The standard absorbance curve was drawn by means of untreated cells seeded at a concentration of from 1000 to 10 000 cells/well with an increasing rate of 1000 cells/well. All standards and experiments were performed in triplicates.
(§4) 12 different types of cell lines were seeded in 96-well plates (medium volume in a well was 100 μl), at a concentration of 10,000 cells/cm^2 in Minimal Essential Medium supplemented with fetal calf serum. When the cells had reached a concentration of 65,000 cells/cm^2, they were treated with different doses of podophyllotoxin and picropodophyllin for 48 h. Cell viability was then assayed (see above). […]

[3] = tested on: R- cells (IGF-1R negative fibroblasts); assay: Cell viability (XTT), R-; assay type: cell-based, murine; conditions: Mus musculus, Fibroblast, 48 h, read-out: EC50 for cell viability
Procedure: as §3, §4

IGF-1R = IGF-1R (Homo sapiens, UniProt P08069); assay: Tyrosine phosphorylation of IGF-1R in intact FM55 melanoma cells; assay type: cell-based; set-up: endogenous in cells; conditions: 0.05 μM, 1 h; for Level of phosphorylation in intact cells, substrate IGF-1R: FM55 cells, Experiment 3; for Level of IGF-1R phosphorylation in intact cells: FM55 melanoma cells, means of 3 experiments
Sequence of IGF-1R (P08069 31-1367): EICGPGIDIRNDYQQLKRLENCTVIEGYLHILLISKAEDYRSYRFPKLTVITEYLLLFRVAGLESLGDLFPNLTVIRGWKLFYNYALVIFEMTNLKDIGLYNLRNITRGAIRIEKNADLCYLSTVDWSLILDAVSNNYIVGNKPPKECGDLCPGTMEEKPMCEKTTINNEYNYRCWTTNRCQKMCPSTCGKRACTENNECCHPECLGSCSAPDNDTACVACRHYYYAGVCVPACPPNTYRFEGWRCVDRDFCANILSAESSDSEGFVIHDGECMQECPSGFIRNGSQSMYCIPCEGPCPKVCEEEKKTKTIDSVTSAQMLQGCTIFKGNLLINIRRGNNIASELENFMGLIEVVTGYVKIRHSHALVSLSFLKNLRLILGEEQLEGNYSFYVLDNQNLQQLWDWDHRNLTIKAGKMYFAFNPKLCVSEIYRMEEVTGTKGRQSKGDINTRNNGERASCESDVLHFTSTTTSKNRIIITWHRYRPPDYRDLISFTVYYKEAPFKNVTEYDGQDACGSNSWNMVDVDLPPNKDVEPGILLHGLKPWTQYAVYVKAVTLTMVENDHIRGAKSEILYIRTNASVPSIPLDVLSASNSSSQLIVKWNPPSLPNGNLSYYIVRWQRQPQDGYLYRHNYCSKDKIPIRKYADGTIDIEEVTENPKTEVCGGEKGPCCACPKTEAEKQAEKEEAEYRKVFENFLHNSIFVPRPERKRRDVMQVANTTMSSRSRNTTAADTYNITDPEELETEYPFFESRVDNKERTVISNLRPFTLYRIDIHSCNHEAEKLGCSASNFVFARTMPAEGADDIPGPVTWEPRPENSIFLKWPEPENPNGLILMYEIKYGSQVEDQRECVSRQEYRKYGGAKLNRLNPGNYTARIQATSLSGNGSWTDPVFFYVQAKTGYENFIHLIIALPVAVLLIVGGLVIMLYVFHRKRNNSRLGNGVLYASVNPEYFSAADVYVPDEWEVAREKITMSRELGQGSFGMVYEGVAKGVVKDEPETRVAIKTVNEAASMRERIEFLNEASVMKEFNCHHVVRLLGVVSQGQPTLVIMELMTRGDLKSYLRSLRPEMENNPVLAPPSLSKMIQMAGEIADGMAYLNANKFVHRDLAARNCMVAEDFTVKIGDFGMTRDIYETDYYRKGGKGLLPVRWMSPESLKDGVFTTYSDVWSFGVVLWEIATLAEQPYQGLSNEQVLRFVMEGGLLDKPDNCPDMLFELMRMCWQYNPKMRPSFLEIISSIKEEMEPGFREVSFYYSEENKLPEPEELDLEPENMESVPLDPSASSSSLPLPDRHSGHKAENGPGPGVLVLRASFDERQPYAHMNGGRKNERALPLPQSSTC
Procedure: as §1
The isolated cells were then lyzed in 10 ml ice-cold PBSTDS containing protease inhibitors (Carlberg, M., et al., J Biol Chem 271:17453-17462, 1996). 50 μl protein A or G agarose was added in 1 ml sample and incubated for 15 min at 4° C. on an orbital shaker. After centrifugation for 10 min at 10,000 r/min at 4° C. the supernatant was saved. The protein content was determined by a dye-binding assay with a reagent purchased from Bio-Rad. Bovine serum albumin was used as a standard. 15 μl Protein G Plus agarose and 5 μl anti-IGF-1R were added. After a 3 h incubation at 4° C. on an orbital shaker the precipitate was collected by pulse centrifugation in a micro centrifuge at 14,000×g for 10 s. The supernatant was discarded and the pellet was washed 3 times with PBSTDS.
Protein samples were solved in a 2×-sample buffer containing Laemmli buffer and 0.5% […] and boiled for 5 min at 96° C. Samples were separated by SDS-PAGE with a 4% stacking gel and 7.5% separation gel. Molecular weight markers (Bio Rad, Sweden) were run simultaneously in all experiments.
Following SDS-PAGE the proteins were transferred overnight to nitro-cellulose membranes (Hybond, Amersham, UK) and then blocked for 1 h at room temperature in a solution of 4% skimmed milk powder and 0.02% Tween 20 in PBS, pH 7.5. Incubations with the primary antibodies were performed for 1 h at room temperature, followed by 3 washes with PBS with Tween and incubation with the second antibody for 1 h room temperature. After another 3 washes the membranes were incubated with Streptavidin-labelled horseradish peroxidase for 30 min and then detected using Amersham ECL system (Amersham, UK). The films were scanned by Fluor-S (BioRad).
FM55 melanoma cells were seeded in 6-cm dishes, at a concentration of 10,000 cells/cm^2 in Minimal Essential Medium supplemented with 10% fetal calf serum (FCS). When the cells reached a density of 65,000 cells/cm^2 in the dishes, they were treated for 1 h with 0.05 μM podophyllotoxin, deoxypodophyllotoxin, picropodophyllin, deoxypicropodophyllin, 4′-demethyl-7-(4,6-O-ethylidene-β-D-glucopyranosyl)epipodophyllotoxin (etoposide) and podophyllotoxin-4,6-O-benzylidene-β-D-glucopyranoside (pf-4,6-O). Etoposide and pf-4,6-O were also administered at 15 μM. The cells were then harvested for assay and quantification of IGF-1R phosphorylation as described in Experiment 1. The values shown in Table 1 represent means of 3 experiments.
as §2

`COc1cc([C@@H]2c3cc4c(cc3[C@H](O)[C@H]3COC(=O)[C@@H]23)OCO4)cc(OC)c1OC` [Picropodophyllin, picropodophyllin] was tested, and the “Level of phosphorylation in intact cells, substrate FGFR” value [1] was 100 % OD, the pEC50 ([2]; Homo sapiens, SK-MEL-28, 48 h; read-out: EC50 for cell viability) was 7.52 and the pEC50 ([3]; R- (IGF-1R negative fibroblasts)) was under 4.82. For the same compound, the “Level of phosphorylation in intact cells, substrate IGF-1R” value (IGF-1R) was 20 % OD and the “Level of IGF-1R phosphorylation in intact cells” value (IGF-1R) was 8 % OD.

With `COc1cc([C@@H]2c3cc4c(cc3[C@H](O)[C@H]3COC(=O)[C@H]23)OCO4)cc(OC)c1OC` [Podophyllotoxin, podophyllotoxin] the “Level of phosphorylation in intact cells, substrate FGFR” value [1] was 105 % OD, the pEC50 ([2]; Homo sapiens, SK-MEL-28, 48 h, read-out: EC50 for cell viability) was 7.70 and the pEC50 [3] was under 4.82. For the same compound, the “Level of phosphorylation in intact cells, substrate IGF-1R” value (IGF-1R) was 7 % OD and the “Level of IGF-1R phosphorylation in intact cells” value (IGF-1R) was 5 % OD.
